Source: US20240140938A1, “PREPARATION OF TETRAHYDROINDAZOLE DERIVATIVES AS NOVEL DIACYLGLYCERIDE O-ACYLTRANSFERASE 2 INHIBITORS” (MERCK SHARP & DOHME LLC, priority 2020, published 2024)

Molecular target: human DGAT2 (hDGAT2) (Homo sapiens (Human), UniProt Q96PD7)
Assay: DGAT2 Enzymatic Activity Assay
Format: biochemical
Conditions: hDGAT2 Sf-9 membrane prep, 13C18-triolein product by LC/MS/MS
Method in brief: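 Enzyme source was membrane fractions from Sf-9 cells infected with untagged hDGAT2 baculovirus. Reactions ran at room temperature, and product 13C18-triolein was quantified by LC/MS/MS against a 13C21-triolein internal standard. % inhibition was normalised to high and low controls, and IC50 derived from it.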

[1] = 25 μM diolein, 5 μM 13C oleoyl-CoA

Chain of human DGAT2 (hDGAT2) (Q96PD7 whole entry): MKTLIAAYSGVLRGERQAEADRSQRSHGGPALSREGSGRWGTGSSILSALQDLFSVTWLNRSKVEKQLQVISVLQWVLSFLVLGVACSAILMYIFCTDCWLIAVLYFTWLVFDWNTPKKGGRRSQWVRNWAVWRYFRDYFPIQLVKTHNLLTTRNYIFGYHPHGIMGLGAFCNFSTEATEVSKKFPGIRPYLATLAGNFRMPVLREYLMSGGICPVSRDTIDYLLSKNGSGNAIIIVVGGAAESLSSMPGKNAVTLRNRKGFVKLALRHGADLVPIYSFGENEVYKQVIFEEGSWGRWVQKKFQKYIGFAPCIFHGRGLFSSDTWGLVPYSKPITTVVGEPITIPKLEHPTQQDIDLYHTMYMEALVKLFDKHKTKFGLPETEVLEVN

| SMILES | IC50 [1] [nM] | IC50 (unit given as nm) [nM] |
| --- | --- | --- |
| CC(C(F)F)n1nc(-c2cc(OC(F)F)ccc2F)c2c1C[C@H](C(=O)NC1(C)CCS(=O)(=O)CC1)CC2 (single isomer, unassigned) [Example 49b] | 0.6 |  |
| C[C@]1(NC(=O)[C@@H]2CCc3c(-c4cccc(OC(F)F)c4)nn(CC4CCOCC4)c3C2)CCS(=O)(=O)C1 [Example 78, (R)-3-(3-(difluoromethoxy)phenyl)-N-((S)-3-methyl-1,1-dioxidotetrahydrothiophen-3-yl)-1-((tetrahydro-2H-pyran-4-yl)methyl)-4,5,6,7-tetrahydro-1H-indazole-6-carboxamide] | > 10000 |  |
| CC(C)NC(=O)N1CCC(C)(NC(=O)[C@@H]2CCc3c(-c4cc(OC(F)F)ccc4F)nn(C(C)C)c3C2)C1 (stereo partly drawn) [Example 60, (6R)-3-(5-(difluoromethoxy)-2-fluorophenyl)-1-isopropyl-N-(1-(isopropylcarbamoyl)-3-methylpyrrolidin-3-yl)-4,5,6,7-tetrahydro-1H-indazole-6-carboxamide] | 29.2 |  |
| C[C@]1(NC(=O)[C@@H]2CCc3c(-c4cccc(OC(F)F)c4)nn(C(=O)c4ccccc4)c3C2)CCS(=O)(=O)C1 [Example 76, (R)-1-benzoyl-3-(3-(difluoromethoxy)phenyl)-N-((S)-3-methyl-1,1-dioxidotetrahydrothiophen-3-yl)-4,5,6,7-tetrahydro-1H-indazole-6-carboxamide] | 2740 |  |
| [2H]C([2H])([2H])C([2H])(n1nc(-c2cc(OC(F)F)ccc2F)c2c1C[C@H](C(=O)NC1(C)CCS(=O)(=O)CC1)CC2)C([2H])([2H])[2H] [Example 46, (R)-3-(5-(difluoromethoxy)-2-fluorophenyl)-N-(4-methyl-1,1-dioxidotetrahydro-2H-thiopyran-4-yl)-1-(propan-2-yl-d7)-4,5,6,7-tetrahydro-1H-indazole-6-carboxamide] | 37.9 |  |
| CC(C)n1nc(-c2cc(OC3CC3)ncc2F)c2c1C[C@H](C(=O)NC1(C)CCS(=O)(=O)CC1)CC2 [Example 37, (R)-3-(2-cyclopropoxy-5-fluoropyridin-4-yl)-1-isopropyl-N-(4-methyl-1,1-dioxidotetrahydro-2H-thiopyran-4-yl)-4,5,6,7-tetrahydro-1H-indazole-6-carboxamide] | 93.2 |  |
| CC(C)n1nc(-c2cccc(OC(F)(F)C(F)F)c2)c2c1C[C@H](C(=O)NC1(C)CCS(=O)(=O)CC1)CC2 [Example 36, (R)-1-isopropyl-N-(4-methyl-1,1-dioxidotetrahydro-2H-thiopyran-4-yl)-3-(3-(1,1,2,2-tetrafluoroethoxy)phenyl)-4,5,6,7-tetrahydro-1H-indazole-6-carboxamide] | 353 |  |
| CC(C)n1nc(-c2cc(OC(F)F)ccc2F)c2c1C[C@H](C(=O)NC1(C)CCS(=O)(=O)CC1)CC2 [Example 30, (R)-3-(5-(difluoromethoxy)-2-fluorophenyl)-1-isopropyl-N-(4-methyl-1,1-dioxidotetrahydro-2H-thiopyran-4-yl)-4,5,6,7-tetrahydro-1H-indazole-6-carboxamide] | 5.5 |  |
| C[C@]1(NC(=O)[C@@H]2CCc3c(-c4cccc(C5CC(F)(F)C5)c4)nn(-c4ccc(F)cc4)c3C2)CCS(=O)(=O)C1 [Example 13, (R)-3-(3-(3,3-difluorocyclobutyl)phenyl)-1-(4-fluorophenyl)-N-((S)-3-methyl-1,1-dioxidotetrahydrothiophen-3-yl)-4,5,6,7-tetrahydro-1H-indazole-6-carboxamide] | 20 |  |
| CC(C)n1nc(-c2cc(OC(F)(F)F)cnc2Cl)c2c1C[C@H](C(=O)NC1(C)CS(=O)(=O)C1)CC2 [Example 88, (R)-3-(2-chloro-5-(trifluoromethoxy)pyridin-3-yl)-1-isopropyl-N-(3-methyl-1,1-dioxidothietan-3-yl)-4,5,6,7-tetrahydro-1H-indazole-6-carboxamide] | 275 |  |
| CC(n1nc(-c2cccc(OC(F)F)c2)c2c1C[C@H](C(=O)NC1(C)CCS(=O)(=O)CC1)CC2)C(C)(C)O (single isomer, unassigned) [Example 111a] | 2070 |  |
| C[C@]1(NC(=O)[C@@H]2CCc3c(-c4cccc(OC(F)F)c4)nn(C4CCS(=O)(=O)CC4)c3C2)CCS(=O)(=O)C1 [Example 24, (R)-3-(3-(difluoromethoxy)phenyl)-1-(1,1-dioxidotetrahydro-2H-thiopyran-4-yl)-N-((S)-3-methyl-1,1-dioxidotetrahydrothiophen-3-yl)-4,5,6,7-tetrahydro-1H-indazole-6-carboxamide] | 144 |  |
| CC(C)n1nc(-c2cccc(C3(C(F)(F)F)CC3)c2)c2c1C[C@H](C(=O)NC1(C)CS(=O)(=O)C1)CC2 [Example 90, (R)-1-isopropyl-N-(3-methyl-1,1-dioxidothietan-3-yl)-3-(3-(1-(trifluoromethyl)cyclopropyl)phenyl)-4,5,6,7-tetrahydro-1H-indazole-6-carboxamide] | > 10000 |  |
| Cn1nccc1-c1nn(-c2ccc(F)cn2)c2c1CC[C@@H](C(=O)N[C@@]1(C)CCS(=O)(=O)C1)C2 [Example 20, (R)-1-(5-fluoropyridin-2-yl)-N-((S)-3-methyl-1,1-dioxidotetrahydrothiophen-3-yl)-3-(1-methyl-1H-pyrazol-5-yl)-4,5,6,7-tetrahydro-1H-indazole-6-carboxamide] | 8430 |  |
| CC(C)n1nc(-c2cc(C(C)(F)F)ncc2F)c2c1C[C@H](C(=O)NC1(C)CCS(=O)(=O)CC1)CC2 [Example 92, (R)-3-(2-(1,1-difluoroethyl)-5-fluoropyridin-4-yl)-1-isopropyl-N-(4-methyl-1,1-dioxidotetrahydro-2H-thiopyran-4-yl)-4,5,6,7-tetrahydro-1H-indazole-6-carboxamide] | 1210 |  |
| CC1(NC(=O)[C@@H]2CCc3c(-c4cc(OC(F)F)ccc4F)nn(S(C)(=O)=O)c3C2)CS(=O)(=O)C1 [Example 115, (R)-3-(5-(difluoromethoxy)-2-fluorophenyl)-N-(3-methyl-1,1-dioxidothietan-3-yl)-1-(methylsulfonyl)-4,5,6,7-tetrahydro-1H-indazole-6-carboxamide] |  | 108 |
| CCOc1ccc(F)c(-c2nn(C(C)C)c3c2CC[C@@H](C(=O)NC2(C)CCS(=O)(=O)CC2)C3)c1 [Example 54, (R)-3-(5-ethoxy-2-fluorophenyl)-1-isopropyl-N-(4-methyl-1,1-dioxidotetrahydro-2H-thiopyran-4-yl)-4,5,6,7-tetrahydro-1H-indazole-6-carboxamide] | 1.8 |  |
| CC1(NC(=O)[C@@H]2CCc3c(-c4cccc(OC(F)F)c4)nn(-c4ccc(F)cn4)c3C2)CC(F)(F)C1 [Example 7, (R)-N-(3,3-difluoro-1-methylcyclobutyl)-3-(3-(difluoromethoxy)phenyl)-1-(5-fluoropyridin-2-yl)-4,5,6,7-tetrahydro-1H-indazole-6-carboxamide] | 12 |  |
| CC(C)n1nc(-c2cc(OC3CC3)ccc2F)c2c1C[C@H](C(=O)NC1(C)CS(=O)(=O)C1)CC2 [Example 85, (R)-3-(5-cyclopropoxy-2-fluorophenyl)-1-isopropyl-N-(3-methyl-1,1-dioxidothietan-3-yl)-4,5,6,7-tetrahydro-1H-indazole-6-carboxamide] | 15.6 |  |
| CCOc1cc(-c2nn(C(C)C)c3c2CC[C@@H](C(=O)NC2(C)CCS(=O)(=O)CC2)C3)c(F)cn1 [Example 22, (R)-3-(2-ethoxy-5-fluoropyridin-4-yl)-1-isopropyl-N-(4-methyl-1,1-dioxidotetrahydro-2H-thiopyran-4-yl)-4,5,6,7-tetrahydro-1H-indazole-6-carboxamide] | 144 |  |
| CC(n1nc(-c2cc(OC(F)F)ccc2F)c2c1C[C@H](C(=O)NC1(C)CS(=O)(=O)C1)CC2)C(C)(C)O (single isomer, unassigned) [Example 110a] | 30.8 |  |
| CC1(NC(=O)[C@@H]2CCc3c(-c4cccc(OC(F)F)c4)nn(C4CCOCC4)c3C2)CS(=O)(=O)C1 [Example 23, (R)-3-(3-(difluoromethoxy)phenyl)-N-(3-methyl-1,1-dioxidothietan-3-yl)-1-(tetrahydro-2H-pyran-4-yl)-4,5,6,7-tetrahydro-1H-indazole-6-carboxamide] | 169 |  |
| CC1(NC(=O)[C@@H]2CCc3c(-c4cncc(OC(F)F)c4)nn(-c4ccc(F)cn4)c3C2)CS(=O)(=O)C1 [Example 12, (R)-3-(5-(difluoromethoxy)pyridin-3-yl)-1-(5-fluoropyridin-2-yl)-N-(3-methyl-1,1-dioxidothietan-3-yl)-4,5,6,7-tetrahydro-1H-indazole-6-carboxamide] | 65.8 |  |
| Cc1nnc(NC(=O)[C@@H]2CCc3c(-c4cccc(OC(F)F)c4)nn(C4CCOCC4)c3C2)s1 [Example 67, (R)-3-(3-(difluoromethoxy)phenyl)-N-(5-methyl-1,3,4-thiadiazol-2-yl)-1-(tetrahydro-2H-pyran-4-yl)-4,5,6,7-tetrahydro-1H-indazole-6-carboxamide] | > 10000 |  |
| CC(C)n1nc(-c2cccc(OC3CC3)c2)c2c1C[C@H](C(=O)NC1(C)CCS(=O)(=O)CC1)CC2 [Example 32, (R)-3-(3-cyclopropoxyphenyl)-1-isopropyl-N-(4-methyl-1,1-dioxidotetrahydro-2H-thiopyran-4-yl)-4,5,6,7-tetrahydro-1H-indazole-6-carboxamide] | 29.1 |  |
| C[C@]1(NC(=O)C2CCc3c(-c4cncc(OC(F)F)c4)nn(-c4nnc(C5CC5)s4)c3C2)CCS(=O)(=O)C1 (stereo partly drawn) [Example 5, 1-(5-cyclopropyl-1,3,4-thiadiazol-2-yl)-3-(5-(difluoromethoxy)pyridin-3-yl)-N-((S)-3-methyl-1,1-dioxidotetrahydrothiophen-3-yl)-4,5,6,7-tetrahydro-1H-indazole-6-carboxamide] | 542 |  |
| CC(C)n1nc(-c2cc(OC(F)F)ccc2F)c2c1C[C@H](C(=O)NC1(C)CCN(C(=O)C3CC3)C1)CC2 (stereo partly drawn) [Example 61, (6R)-N-(1-(cyclopropanecarbonyl)-3-methylpyrrolidin-3-yl)-3-(5-(difluoromethoxy)-2-fluorophenyl)-1-isopropyl-4,5,6,7-tetrahydro-1H-indazole-6-carboxamide] | 26.2 |  |
